17 compounds from ChEMBL document CHEMBL1782041, “Novel non-peptide beta-secretase inhibitors derived from structure-based virtual screening and bioassay” (Bioorg Med Chem Lett, 2009) can be followed below.

In general, inhibition refers to how much of the control response was suppressed. High values mean a response far below the control, low ones a response near the control. For orientation: pIC50 means −log10 of the IC50, conventionally taken in molar units. Higher therefore signals a small IC50.

In experiment [1] the target is T1, Beta-secretase 1 (Homo sapiens, UniProt P56817). Kind of experiment: Inhibition of BACE1 using peptide substrate Rh-EVNLDAEFKQuencher at 100 uM by fluorescence resonance energy transfer (FRET) assay.
T1 sequence (P56817 whole entry): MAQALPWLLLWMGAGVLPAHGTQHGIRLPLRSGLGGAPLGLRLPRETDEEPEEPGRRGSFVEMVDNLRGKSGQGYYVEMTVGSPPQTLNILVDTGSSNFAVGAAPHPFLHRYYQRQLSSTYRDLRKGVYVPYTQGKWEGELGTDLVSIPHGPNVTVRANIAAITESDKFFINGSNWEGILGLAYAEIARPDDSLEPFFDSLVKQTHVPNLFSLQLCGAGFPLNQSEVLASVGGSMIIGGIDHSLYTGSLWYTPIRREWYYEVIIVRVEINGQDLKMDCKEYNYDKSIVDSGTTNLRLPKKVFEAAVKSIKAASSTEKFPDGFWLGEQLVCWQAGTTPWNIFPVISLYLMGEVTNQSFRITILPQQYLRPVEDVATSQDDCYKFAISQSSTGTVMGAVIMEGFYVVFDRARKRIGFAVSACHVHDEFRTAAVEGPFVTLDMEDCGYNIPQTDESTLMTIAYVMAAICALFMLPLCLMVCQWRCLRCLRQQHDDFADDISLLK
For experiment [2], the target named is T1, Beta-secretase 1. Kind of experiment: Inhibition of BACE1 using peptide substrate Rh-EVNLDAEFKQuencher by fluorescence resonance energy transfer (FRET) assay.

SMILES strings stand for the structures. pIC50: −log10 of the molar value. Peptide text beside a SMILES is read from it. Where only a bound is given, the exact number is not on record here.

For the compound `N#Cc1c(NC(=O)C(F)(F)C(F)(F)C(F)(F)C(F)(F)C(=O)Nc2sc3c(c2C#N)CCCCCC3)sc2c1CCCCCC2`, the inhibition in experiment [1] was 87%. Moreover, the pIC50 in experiment [2] was 4.91.
For the compound `Cc1nc(NC(=NC(=O)Nc2ccccc2)NC(=O)Nc2ccccc2)nc2ccccc12`, the negative logarithm of the IC50 (pIC50) in experiment [2] was 5.52.
`Cc1ccc(NC(=O)Cc2nnc(SCC(=O)Nc3nc(-c4ccccc4)cs3)n2C)cc1`: in experiment [1], the inhibition turned out to be 83%. In addition, the negative logarithm of the IC50 (pIC50) in experiment [2] is 4.68.
Regarding `N#Cc1c(-c2ccc(F)cc2)cc(-c2ccccc2)nc1SCC(=O)NC12CC3CC(CC(C3)C1)C2`, the inhibition in experiment [1] came to 45%. In experiment [2], this compound had a pIC50 of 3.93.
Consider `CCc1nnc(NC(=O)CSc2nc(-c3ccc(F)cc3)cc(-c3ccccc3)c2C#N)s1`, for which the inhibition in experiment [1] was found to be 80%. Moreover, the pIC50 in experiment [2] is 4.30.
On the same counts, the results for `CC[C@H](C)[C@H](NC(=O)[C@H](CCC(=O)O)NC(=O)[C@H](CCC(=O)O)NC(=O)[C@@H](NC(=O)[C@@H](N)CCCCN)[C@@H](C)O)C(=O)N[C@@H](CO)C(=O)N[C@@H](CCC(=O)O)C(=O)N[C@H](C(=O)N[C@@H](CC(N)=O)C(=O)N[C@@H](CC(C)C)[C@@H](O)CC(=O)N[C@H](C(=O)N[C@@H](C)C(=O)N[C@@H](CCC(=O)O)C(=O)N[C@@H](Cc1ccccc1)C(=O)O)C(C)C)C(C)C` (HELM PEPTIDE1{K.T.E.E.I.S.E.V.N.[CC(C)C[C@H](N[*:1])[C@@H](O)CC(=O)[*:2]].V.A.E.F}$$$$V2.0) are 100% and 6.92.
On the same counts, the results for `Cc1cc(C)nc(N/C(=N\C(=O)N2c3ccccc3Sc3ccccc32)Nc2cccc([N+](=O)[O-])c2)n1` are 80% and 4.54.
In turn, `O=C(Nc1ncc(Cc2cccc(Cl)c2Cl)s1)c1ccc(CSc2nnc(-c3ccncc3)n2-c2ccccc2)cc1` returned an inhibition in experiment [1] of 78%. Moreover, the negative logarithm of the IC50 (pIC50) in experiment [2] is < 4.00.
`O=S(=O)(c1ccc(Br)cc1)N(c1cnn(Cc2ccc(Cl)c(Cl)c2)c1)S(=O)(=O)c1ccc(Br)cc1` showed an inhibition in experiment [1] of 50%. Moreover, the pIC50 in experiment [2] was 4.05.
Regarding `N#Cc1c(-c2ccccc2)cc(-c2ccccc2)nc1SCC(=O)Nc1cccc([N+](=O)[O-])c1`, in experiment [1], the inhibition worked out at 100%. In experiment [2], this compound showed a negative logarithm of the IC50 (pIC50) of 4.70.
`Cc1nn(-c2ccccc2)c(Cl)c1C1Nc2ccccc2-c2nnc(SCc3ccccc3)nc2O1` (configuration not stated) came in with an inhibition in experiment [1] of 48%. The same compound showed a pIC50 in experiment [2] of 4.00.
For `O=C(CSc1nc2ccc(Nc3nc(N4CCCCC4)nc(N4CCCCC4)n3)cc2s1)Nc1ccccc1F`, in experiment [1], the inhibition is 90%. For the same compound, the negative logarithm of the IC50 (pIC50) in experiment [2] was 4.99.
On the same counts, the results for `O=C(CSc1nnc(Cc2c[nH]c3ccccc23)n1Cc1ccccc1)c1c[nH]c2ccccc12` are 75% and 4.00.
`Cc1nc(N/C(=N\C(=O)Nc2ccccc2)NC(=O)Nc2ccccc2)nc2ccccc12` had an inhibition in experiment [1] of 100%.
For `COc1ccc(CCNC(=O)CSc2nc3ccc(Nc4nc(N5CCCCC5)nc(N5CCCCC5)n4)cc3s2)cc1OC`, the inhibition in experiment [1] was determined as 80%. The same compound gave a pIC50 in experiment [2] of 5.55.
`N#Cc1c(NC(=O)COC(=O)CSc2nc(-c3ccccc3)cc(-c3ccccc3)n2)sc2c1CCCC2`: the inhibition in experiment [1] is 75%. The compound also showed a pIC50 in experiment [2] of 4.46.
On to `COc1ccc(-c2cc(-c3ccc(Cl)cc3)c(C#N)c(SCC(=O)N(c3ccccc3)c3ccc4ccccc4c3)n2)cc1`, for which, in experiment [1], the inhibition amounted to 68%. Besides, the negative-log IC50 (pIC50) in experiment [2] was 4.30.
